Laboratory results taken from patent US11566007B2, “Ras inhibitors” (Revolution Medicines, Inc., priority 2019, dated 2023).
Read-outs that look alike come from different tables or passages of the source.

Tests used:
[1] = tested on: NCI-H358 cells (K-Ras G12C); experiment: Potency assay: pERK in NCI-H358 cells; type: cell-based, human; settings: Homo sapiens
In short: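 4 h cpd, 37 °C; 10-pt 3-fold series, 10 mM DMSO top stock, duplicates. Readout pERK: AlphaLISA SureFire Ultra or In-Cell Western (IR-800CW secondary, DRAQ5 DNA stain). IC50, 4-PL fit vs log conc.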

[2] = biological target: K-Ras G12C (Homo sapiens (Human), UniProt P01116+P62937, G12C); experiment: Ras-Raf (BRAF RBD) disruption / FRET / MOA assay, KRAS G12C; type: biochemical; settings: KRAS G12C; Ras-Raf disruption/FRET/MOA assay; read-out: IC50* KRAS G12C FRET data
In short: (§1)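 Ternary complex formation (Ras–compound–cyclophilin A) displacing BRAF RBD, monitored by TR-FRET. Three hours at 25° C with compound (top 30 μM final), then 1.5 h with the labelled antibodies. Lower ratio than DMSO indicates disruption; IC50 reported.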

[3] = biological target: K-Ras G13C (Homo sapiens (Human), UniProt P01116+P62937, G13C); experiment: Ras-Raf (BRAF RBD) disruption / FRET / MOA assay, KRAS G13C; type: biochemical; settings: KRAS G13C; Ras-Raf disruption/FRET/MOA assay; read-out: IC50* KRAS G13C FRET data
In short: as §1

[4] = biological target: KRAS G12S (Homo sapiens (Human), UniProt P01116+P62937, G12S); experiment: Ras-Raf (BRAF RBD) disruption / FRET / MOA assay, KRAS G12S; type: biochemical; settings: Ras-Raf disruption/FRET/MOA assay; class symbols; read-out: KRAS G12S FRET data IC50
In short: as §1

[5] = biological target: KRAS G12D (Homo sapiens (Human), UniProt P01116+P62937, G12D); experiment: Ras-Raf (BRAF RBD) disruption / FRET / MOA assay, KRAS G12D; type: biochemical; settings: Ras-Raf disruption/FRET/MOA assay; class symbols; read-out: KRAS G12D FRET data IC50
In short: as §1

[6] = biological target: KRAS G12V (Homo sapiens (Human), UniProt P01116+P62937, G12V); experiment: Ras-Raf (BRAF RBD) disruption / FRET / MOA assay, KRAS G12V; type: biochemical; settings: read-out: IC50* KRAS G12V FRET data
In short: as §1

[7] = biological target: KRAS WT (Homo sapiens (Human), UniProt P01116+P62937); experiment: Ras-Raf (BRAF RBD) disruption / FRET / MOA assay, KRAS WT; type: biochemical; settings: read-out: IC50* KRAS WT FRET data
In short: as §1

[8] = biological target: KRAS G13D (Homo sapiens (Human), UniProt P01116+P62937, G13D); experiment: Ras-Raf (BRAF RBD) disruption / FRET / MOA assay, KRAS G13D; type: biochemical; settings: read-out: IC50* KRAS G13D FRET data
In short: as §1

[9] = biological target: KRAS Q61H (Homo sapiens (Human), UniProt P01116+P62937, Q61H); experiment: Ras-Raf (BRAF RBD) disruption / FRET / MOA assay, KRAS Q61H; type: biochemical; settings: Ras-Raf disruption/FRET/MOA assay; class symbols; read-out: KRAS Q61H FRET data IC50
In short: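 Compounds were tested as a 10-point 3-fold dilution series from 30 μM final for their ability to drive ternary complex formation between nucleotide-loaded Ras and cyclophilin A, displacing the BRAF RBD. After 3 h at 25° C., anti-His Eu-W1024 (10 nM) and anti-GST allophycocyanin (50 nM) were added for 1.5 h. A TR-FRET ratio decrease versus DMSO gave IC50.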

[10] = biological target: NRAS G12C (Homo sapiens (Human), UniProt P01111+P62937, G12C); experiment: Ras-Raf (BRAF RBD) disruption / FRET / MOA assay, NRAS G12C; type: biochemical; settings: read-out: IC50* NRAS G12C FRET data
In short: as §1

[11] = biological target: NRAS Q61R (Homo sapiens (Human), UniProt P01111+P62937, Q61R); experiment: Ras-Raf (BRAF RBD) disruption / FRET / MOA assay, NRAS Q61R; type: biochemical; settings: NRAS Q61R; Ras-Raf disruption/FRET/MOA assay; read-out: IC50* NRAS Q61R FRET data
Procedure: (§2) The purpose of this biochemical assay is to measure the ability of test compounds to facilitate ternary complex formation between a nucleotide-loaded Ras isoform and cyclophilin A; the resulting ternary complex disrupts binding to a BRAF^RBD construct, inhibiting Ras signaling through a RAF effector.
(§3) […]. Compound is present in plate wells as a 10-point 3-fold dilution series starting at a final concentration of 30 μM. After incubation at 25° C. for 3 hours, a mixture of Anti-His Eu-W1024 and anti-GST allophycocyanin is then added to assay sample wells at final concentrations of 10 nM and 50 nM, respectively, and the reaction incubated for an additional 1.5 hours. […] Compounds that facilitate disruption of a Ras:RAF complex are identified as those eliciting a decrease in the TR-FRET ratio relative to DMSO control wells.
(§4) Note—The following protocol describes a procedure for monitoring disruption of K-Ras G12C (GMP-PNP) binding to BRAF^RBD by a compound of the invention. This protocol may also be executed substituting other Ras proteins or nucleotides.
(§5) The purpose of this biochemical assay was to measure the ability of test compounds to facilitate ternary complex formation between a nucleotide-loaded K-Ras isoform and Cyclophilin A; the resulting ternary complex disrupts binding to a BRAF^RBD construct, inhibiting K-Ras signaling through a RAF effector. Data is reported as IC50 values.
as §3, with “Compound was” for “Compound is”, “allophycocyanin was” for “allophycocyanin is”, “a K-Ras:RAF” for “a Ras:RAF”, “complex were” for “complex are”

[12] = biological target: NRAS Q61K (Homo sapiens (Human), UniProt P01111+P62937, Q61K); experiment: Ras-Raf (BRAF RBD) disruption / FRET / MOA assay, NRAS Q61K; type: biochemical; settings: NRAS Q61K; Ras-Raf disruption/FRET/MOA assay; read-out: IC50* NRAS Q61K FRET data
Procedure: as §2, §3, §4, §5
as §3, with “Compound was” for “Compound is”, “allophycocyanin was” for “allophycocyanin is”, “a K-Ras:RAF” for “a Ras:RAF”, “complex were” for “complex are”

[13] = biological target: NRAS WT (Homo sapiens (Human), UniProt P01111+P62937); experiment: Ras-Raf (BRAF RBD) disruption / FRET / MOA assay, NRAS WT; type: biochemical; settings: read-out: IC50* NRAS WT FRET data
Procedure: as §2, §3, §4, §5
as §3, with “Compound was” for “Compound is”, “allophycocyanin was” for “allophycocyanin is”, “a K-Ras:RAF” for “a Ras:RAF”, “complex were” for “complex are”

[14] = NCI-H358, H358 KRAS G12C, read-out: pERK EC50

K-Ras G13C, sequence (P01116-2 other isoform, or with tags, fused parts or gaps G13C): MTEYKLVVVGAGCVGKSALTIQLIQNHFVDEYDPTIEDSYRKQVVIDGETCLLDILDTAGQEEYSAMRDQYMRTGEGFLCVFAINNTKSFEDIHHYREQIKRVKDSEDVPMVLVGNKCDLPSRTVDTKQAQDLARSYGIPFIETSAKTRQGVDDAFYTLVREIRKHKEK
K-Ras G13C, sequence (P62937 whole entry): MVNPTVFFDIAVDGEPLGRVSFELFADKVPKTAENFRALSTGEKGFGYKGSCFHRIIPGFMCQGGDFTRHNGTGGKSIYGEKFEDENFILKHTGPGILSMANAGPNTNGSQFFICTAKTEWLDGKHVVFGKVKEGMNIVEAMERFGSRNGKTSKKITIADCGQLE
NRAS WT, sequence (P01111 whole entry): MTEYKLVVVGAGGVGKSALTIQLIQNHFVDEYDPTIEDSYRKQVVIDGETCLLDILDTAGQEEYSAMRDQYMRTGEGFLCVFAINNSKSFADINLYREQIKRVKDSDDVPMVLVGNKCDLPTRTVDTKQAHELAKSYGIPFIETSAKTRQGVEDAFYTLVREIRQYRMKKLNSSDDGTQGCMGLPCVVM
NRAS WT, sequence (P62937 whole entry): as the sequence (P62937 whole entry) above
KRAS G13D, sequence (P01116-2 other isoform, or with tags, fused parts or gaps G13D): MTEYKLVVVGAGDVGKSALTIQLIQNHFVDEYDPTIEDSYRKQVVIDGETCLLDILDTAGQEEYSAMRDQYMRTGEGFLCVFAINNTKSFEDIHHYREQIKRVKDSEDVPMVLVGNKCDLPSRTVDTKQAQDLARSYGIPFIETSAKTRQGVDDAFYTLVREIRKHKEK
KRAS G13D, sequence (P62937 whole entry): as the sequence (P62937 whole entry) above
KRAS WT, sequence (P01116-2 other isoform, or with tags, fused parts or gaps): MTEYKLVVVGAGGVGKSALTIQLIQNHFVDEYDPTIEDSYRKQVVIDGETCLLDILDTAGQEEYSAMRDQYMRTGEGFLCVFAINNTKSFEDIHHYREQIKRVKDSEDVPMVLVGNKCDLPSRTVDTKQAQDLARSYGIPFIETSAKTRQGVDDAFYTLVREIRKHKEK
KRAS WT, sequence (P62937 whole entry): as the sequence (P62937 whole entry) above
NRAS Q61R, sequence (P01111 whole entry Q61R, canonical isoform): as the sequence (P01111 whole entry) above, with Q61R counted along it
NRAS Q61R, sequence (P62937 whole entry, canonical isoform): as the sequence (P62937 whole entry) above
NRAS G12C, sequence (P01111 whole entry G12C): as the sequence (P01111 whole entry) above, with G12C counted along it
NRAS G12C, sequence (P62937 whole entry): as the sequence (P62937 whole entry) above
KRAS G12S, sequence (P01116-2 other isoform, or with tags, fused parts or gaps G12S): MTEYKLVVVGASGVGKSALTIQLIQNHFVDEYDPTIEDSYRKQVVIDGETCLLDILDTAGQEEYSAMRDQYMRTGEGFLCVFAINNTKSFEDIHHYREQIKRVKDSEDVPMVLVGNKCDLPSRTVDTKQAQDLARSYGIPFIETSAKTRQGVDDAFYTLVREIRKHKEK
KRAS G12S, sequence (P62937 whole entry): as the sequence (P62937 whole entry) above
KRAS G12V, sequence (P01116-2 other isoform, or with tags, fused parts or gaps G12V): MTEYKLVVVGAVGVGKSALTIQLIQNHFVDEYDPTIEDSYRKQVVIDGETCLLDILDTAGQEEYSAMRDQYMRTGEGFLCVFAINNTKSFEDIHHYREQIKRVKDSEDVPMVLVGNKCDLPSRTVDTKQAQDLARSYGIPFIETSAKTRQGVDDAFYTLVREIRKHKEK
KRAS G12V, sequence (P62937 whole entry): as the sequence (P62937 whole entry) above
K-Ras G12C, sequence (P01116-2 other isoform, or with tags, fused parts or gaps G12C): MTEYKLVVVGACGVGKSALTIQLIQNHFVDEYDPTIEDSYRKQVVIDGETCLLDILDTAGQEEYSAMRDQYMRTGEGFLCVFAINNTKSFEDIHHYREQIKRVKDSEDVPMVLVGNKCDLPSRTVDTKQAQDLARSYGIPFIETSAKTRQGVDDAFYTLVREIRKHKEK
K-Ras G12C, sequence (P62937 whole entry): as the sequence (P62937 whole entry) above
KRAS G12D, sequence (P01116-2 other isoform, or with tags, fused parts or gaps G12D): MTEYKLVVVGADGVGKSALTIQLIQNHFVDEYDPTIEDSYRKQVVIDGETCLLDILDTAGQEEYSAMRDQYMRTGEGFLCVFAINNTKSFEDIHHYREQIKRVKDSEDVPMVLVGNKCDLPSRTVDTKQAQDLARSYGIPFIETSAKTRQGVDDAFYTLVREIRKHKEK
KRAS G12D, sequence (P62937 whole entry): as the sequence (P62937 whole entry) above
KRAS Q61H, sequence (P01116-2 other isoform, or with tags, fused parts or gaps Q61H): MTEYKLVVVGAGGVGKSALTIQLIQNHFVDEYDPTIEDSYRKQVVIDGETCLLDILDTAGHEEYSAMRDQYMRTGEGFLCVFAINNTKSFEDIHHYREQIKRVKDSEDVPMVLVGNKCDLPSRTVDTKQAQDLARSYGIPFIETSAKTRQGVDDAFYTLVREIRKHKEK
KRAS Q61H, sequence (P62937 whole entry): as the sequence (P62937 whole entry) above
NRAS Q61K, sequence (P01111 whole entry Q61K): as the sequence (P01111 whole entry) above, with Q61K counted along it
NRAS Q61K, sequence (P62937 whole entry): as the sequence (P62937 whole entry) above

SMILES	EC50 [1, 14] [µM]	IC50 [2] [µM]	IC50 [3] [µM]	IC50 [4] [µM]	IC50 [5] [µM]	IC50 [6] [µM]	IC50 [7] [µM]	IC50 [8] [µM]	IC50 [9] [µM]	IC50 [10] [µM]	IC50 [11] [µM]	IC50 [12] [µM]	IC50 [13] [µM]	EC50 ([1]; NCI-H358, read-out: pERK EC50) [µM]
C=CC(=O)N1CC[C@H](C(=O)N(C)[C@H](C(=O)N[C@H]2CC3=CCCN(C3)c3ccc4c(c3)c(c(-c3cccnc3[C@H](C)OC)n4CC)CC(C)(C)COC(=O)[C@@H]3CCCN(N3)C2=O)C(C)C)C1 (atropisomer, axis not shown) [Example A486]	< 5	0.1 to 1	1 to 10	> 10	> 10	> 10	> 10	> 10	> 10	0.1 to 1	> 10	> 10	> 10	–
CO[C@@H](C)c1ncc(N2CCN(C)CC2)cc1-c1c2c3cc(ccc3n1CC(F)(F)F)-c1cccc(c1)C[C@H](NC(=O)[C@H](C(C)C)N(C)C(=O)C1(F)CCN(C(=O)C#CC(C)(C)N(C)C)CC1)C(=O)N1CCC[C@H](N1)C(=O)OCC(C)(C)C2 (atropisomer, axis not shown) [Example A542, 1-(4-(dimethylamino)-4-methylpent-2-ynoyl)-4-fluoro-N-((2S)-1-(((6^3S,4S)-1^2-(2-((S)-1-methoxyethyl)-5-(4-methylpiperazin-1-yl)pyridin-3-yl)-10,10-dimethyl-5,7-dioxo-1^1-(2,2,2-trifluoroethyl)-6^1,6^2,6^3,6^4,6^5,6^6-hexahydro-1^1H-8-oxa-1(5,3)-indola-6(1,3)-pyridazina-2(1,3)-benzenacycloundecaphane-4-yl)amino)-3-methyl-1-oxobutan-2-yl)-N-methylpiperidine-4-carboxamide]	< 5	< 0.01	< 0.01	0.01 to 0.1	0.1 to 1	0.01 to 0.1	0.01 to 0.1	0.01 to 0.1	0.01 to 0.1	< 0.01	0.01 to 0.1	0.01 to 0.1	0.01 to 0.1	–
CO[C@@H](C)c1ncccc1-c1c2c3cc(ccc3n1CC(F)(F)F)-c1csc(n1)C[C@H](NC(=O)[C@H](C(C)C)N(C)C(=O)N1C[C@@H]3OCCN(C(=O)/C=C/CF)[C@@H]3C1)C(=O)N1CCC[C@H](N1)C(=O)OCC(C)(C)C2 (atropisomer, axis not shown) [Example A571]	< 5	0.1 to 1	0.01 to 0.1	0.1 to 1	1 to 10	0.1 to 1	0.1 to 1	1 to 10	0.1 to 1	0.1 to 1	0.1 to 1	0.1 to 1	0.1 to 1	–
CO[C@@H](C)c1ncccc1-c1c2c3cc(ccc3n1CC(F)(F)F)-c1csc(n1)C[C@H](NC(=O)[C@H](C(C)C)N(C)C(=O)N1C[C@@H]3OCCN(C(=O)/C=C/C(F)F)[C@@H]3C1)C(=O)N1CCC[C@H](N1)C(=O)OCC(C)(C)C2 (atropisomer, axis not shown) [Example A572]	< 5	0.01 to 0.1	0.01 to 0.1	0.1 to 1	1 to 10	0.1 to 1	0.1 to 1	1 to 10	0.1 to 1	0.01 to 0.1	0.1 to 1	0.1 to 1	0.1 to 1	–
CO[C@@H](C)c1ncccc1-c1c2c3cc(ccc3n1CC(F)(F)F)-c1csc(n1)C[C@H](NC(=O)[C@H](C(C)C)N(C)C(=O)N1C[C@@H]3OCCN(C(=O)/C=C/CN(C)C)[C@@H]3C1)C(=O)N1CCC[C@H](N1)C(=O)OCC(C)(C)C2 (atropisomer, axis not shown) [Example A573]	< 5	0.01 to 0.1	0.01 to 0.1	0.1 to 1	1 to 10	1 to 10	0.1 to 1	0.1 to 1	0.1 to 1	0.01 to 0.1	0.1 to 1	0.1 to 1	0.1 to 1	–
CO[C@@H](C)c1ncccc1-c1c2c3cc(ccc3n1CC(F)(F)F)-c1nc(nn1C)C[C@H](NC(=O)[C@H](C(C)C)N(C)C(=O)C1(F)CCN(C(=O)C#CC(C)(C)N(C)C)CC1)C(=O)N1CCC[C@H](N1)C(=O)OCC(C)(C)C2 (atropisomer, axis not shown) [Example A577]	< 5	< 0.01	0.01 to 0.1	0.01 to 0.1	0.1 to 1	0.1 to 1	0.1 to 1	0.1 to 1	0.01 to 0.1	< 0.01	0.01 to 0.1	0.01 to 0.1	0.01 to 0.1	–
C=CC(=O)N1CCO[C@@H]2CCN(C(=O)N(C)[C@H](C(=O)N[C@H]3Cc4nc(cs4)-c4ccc5c(c4)c(c(-c4cccnc4[C@H](C)OC)n5CC)CC(C)(C)COC(=O)[C@@H]4CCCN(N4)C3=O)C(C)C)C[C@@H]21 (atropisomer, axis not shown) [Example A581]	< 5	0.01 to 0.1	0.1 to 1	0.1 to 1	1 to 10	0.1 to 1	0.1 to 1	0.1 to 1	0.1 to 1	0.01 to 0.1	0.1 to 1	0.1 to 1	0.1 to 1	–
CCn1c(-c2cccnc2[C@H](C)OC)c2c3cc(ccc31)-c1cccc(c1)C[C@H](NC(=O)[C@H](C(C)C)N1CC[C@]3(CCN(C(=O)C#C[C@H]4COCCN4C)C3)C1=O)C(=O)N1CCC[C@H](N1)C(=O)OCC(C)(C)C2 (atropisomer, axis not shown) [Example A592]	–	0.01 to 0.1	1 to 10	1 to 10	> 10	1 to 10	> 10	> 10	1 to 10	0.01 to 0.1	> 10	> 10	> 10	< 5
C=CC(=O)N1CCO[C@H]2CCN(C(=O)N(C)[C@H](C(=O)N[C@H]3Cc4nc(cs4)-c4ccc5c(c4)c(c(-c4cccnc4[C@H](C)OC)n5CC)CC(C)(C)COC(=O)[C@@H]4CCCN(N4)C3=O)C(C)C)C[C@@H]21 (atropisomer, axis not shown) [Example A609]	< 5	< 0.01	0.01 to 0.1	0.01 to 0.1	0.1 to 1	0.01 to 0.1	0.01 to 0.1	0.1 to 1	0.01 to 0.1	< 0.01	0.01 to 0.1	0.01 to 0.1	0.01 to 0.1	–
